Target: T1, hA3AR (Homo sapiens, UniProt P0DMS8)
T1 sequence (P0DMS8 1-318): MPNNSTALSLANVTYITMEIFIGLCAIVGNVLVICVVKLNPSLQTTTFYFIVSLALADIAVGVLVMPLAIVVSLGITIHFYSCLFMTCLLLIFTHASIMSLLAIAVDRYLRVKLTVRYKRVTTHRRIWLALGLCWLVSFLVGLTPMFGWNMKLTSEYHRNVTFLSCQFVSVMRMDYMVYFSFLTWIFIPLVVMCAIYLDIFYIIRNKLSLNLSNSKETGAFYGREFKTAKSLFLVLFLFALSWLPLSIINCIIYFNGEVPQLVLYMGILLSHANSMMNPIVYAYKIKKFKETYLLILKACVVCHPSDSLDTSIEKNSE
Format: cell-based
Conditions: compared to Cl-IB-MECA as reference full agonist

Row | functional behaviour at hA3AR (cAMP assay) | Structure (SMILES)
1 | inactive | COc1ccc(Cl)cc1CNc1ncnc2c1ncn2[C@@H]1OC[C@](O)(CO)[C@H]1O [10c, 1′-[N^6-(2-Methoxy-5-chlorobenzyl)-adenin-9-yl]-β-D-apio-D-furanose]
2 | partial agonist | COc1ccc(Cl)cc1CNc1ncnc2c1ncn2[C@@H]1OC[C@@](O)(CO)[C@H]1O [11c, 1′-[N^6-(2-Methoxy-5-chlorobenzyl)adenin-9-yl]-α-D-apio-L-furanose]
